Laboratory results from patent US20120244094A1, “TETRAPEPTIDES FOR BRIGHTENING THE SKIN” (EVONIK GOLDSCHMIDT GMBH, priority 2009, published 2012).

Columns and labels:
age spots on the face = test: Reduction of age spots on the face, half-side test, chromameter skin shade ITA°; format: in vivo, human; conditions: applied twice daily for six weeks, FIG. 4; for ΔΔITA after 6-week application of the test formulations (reduction of age spots): 40 women, PKEK 0.004%, sodium ascorbyl phosphate 1.5%
Method: In order to quantify such age spots, color measurements of the skin are carried out. For this purpose, chromameters are used. The chromameter measures the color values L*, a* and b*. These describe a three-dimensional color space, with the help of which every perceivable color can be described, cf. FIG. 2. The end points are black (L=0) and white (L=100). In order to be able to classify the skin shade, the parameters L* and b* are required. The skin shade ITA° is given in degrees and calculated using the following formula: ITA°=[arctan((L*−50)/b*)]*180/3.14159 By means of the following study, the aim is to investigate whether the tetrapeptide PKEK is able to visibly reduce age spots. The study was carried out as a half-side test. 40 women aged between 30 and 70 years were selected who had visible age spots on the face. They were each given 2 test formulations, one for the right half of the face and the other for the left half of the face. The test formulations had to be applied twice daily over a period of six weeks. [table] Prior to the start of the study and also after 6 weeks, the color of the skin directly on the age spot was measured as well as in the adjoining area. This was performed using a CR 400 chromameter from Minolta. The skin shade ITA° was calculated both for the age spot (ITA°A) and also the adjoining area (ITA°U) and the difference was calculated: ΔITA°=ITA°U−ITA°A The greater ΔITA°, the more visible the age spot.

[1] = test system: melanin concentration in the skin of the forearm; test: In vivo lightening (2-month study), melanin concentration measured with a Mexameter probe; design: species or system human; conditions: 0.005% PKEK formulation, 20 subjects, compared to vehicle, FIG. 1
Description: 20 subjects wore a test formulation without peptide or with 0.005% PKEK over a period of 8 weeks on one forearm in each case. Prior to the start of the study, and also after 8 weeks, a Mexameter probe (Courage & Khazaka, Cologne) was used to measure the melanin concentration both on the inside and also on the outside of the forearm. The measurement of the melanin concentration in the skin is based on the principle of absorption/reflection. The Mexameter probe emits light of a specific wavelength which is in agreement with the absorption maxima of the melanin in the skin. The light reflected by the skin is measured and placed relative to the emitted amount of light. The resulting measurement values are given as index numbers. [table]

[2] = test system: evenness of the skin appearance of dark-skinned women (Fitzpatrick type VI-V); test: Improvement in the skin appearance in dark-skinned people, visual assessment of evenness by an expert; format: in vivo, human; conditions: 0.004% PKEK face cream twice daily, FIG. 5
Method: For the following study, dark-skinned women (Fitzpatrick type VI-V) were used. The Fitzpatrick scale serves to organize the different skin types:
In each case, 25 female subjects were given a face cream which comprised either the tetrapeptide PKEK or no active ingredient (vehicle). They had to apply this formulation twice daily over the entire face for a period of 12 weeks. Prior to the start of the study and also after 2, 4, 8 and 12 weeks, the evenness of the skin appearance was assessed visually by an expert.
A five-part scale was used for assessing the skin appearance:
5=no contrast, very even skin appearance 4=slight contrast, slightly irregular skin appearance 3=moderate contrast, irregular skin appearance 2=high contrast, highly irregular skin appearance 1=very high contrast, very highly irregular skin appearance

O=C1O[C@H]([C@@H](O)CO)C([O-])=C1OP(=O)([O-])[O-].[Na+].[Na+].[Na+] [sodium ascorbyl phosphate, reference compound]
ΔΔITA after 6-week application of the test formulations (reduction of age spots) (age spots on the face): visible reduction of the age spots

Pro Lys Glu Lys (PKEK)
difference in the melanin values after 8 weeks compared to the starting value (decrease in skin brownness) ([1]; inside of the forearm): significantly greater decrease in skin brownness | difference in the melanin values after 8 weeks compared to the starting value (decrease in skin brownness) ([1]; outside of the forearm): significantly greater decrease in skin brownness | ΔΔITA after 6-week application of the test formulations (reduction of age spots) (age spots on the face): visible reduction of the age spots | reduction of age spots, PKEK compared with sodium ascorbyl phosphate (age spots on the face; comparison of the single actives): greater reduction than sodium ascorbyl phosphate | improvement in the evenness of the skin appearance (five-part visual scale) ([2]; after 12 weeks, vehicle shows no further improvement): significantly improves the skin appearance yet further | improvement in the evenness of the skin appearance compared with the vehicle ([2]; within the first 8 weeks, over the course of the time): increasingly greater over the course of the time than with the vehicle | improvement in the evenness of the skin appearance (five-part visual scale) ([2]; within the first 8 weeks): visibly improved
